For eleven compounds, IC50 and inhibition results are on record in ChEMBL document CHEMBL5055685, “Discovery of the First Potent IDO1/IDO2 Dual Inhibitors: A Promising Strategy for Cancer Immunotherapy” (J Med Chem, 2021).

One may read the IC50 as the concentration that gives 50% inhibition. In general, inhibition refers to the change of the read-out against control, counted positive when it falls.

The target in experiment [1] is T1, Indoleamine 2,3-dioxygenase 2 (Homo sapiens, UniProt Q6ZQW0).
T1 sequence (Q6ZQW0 whole entry): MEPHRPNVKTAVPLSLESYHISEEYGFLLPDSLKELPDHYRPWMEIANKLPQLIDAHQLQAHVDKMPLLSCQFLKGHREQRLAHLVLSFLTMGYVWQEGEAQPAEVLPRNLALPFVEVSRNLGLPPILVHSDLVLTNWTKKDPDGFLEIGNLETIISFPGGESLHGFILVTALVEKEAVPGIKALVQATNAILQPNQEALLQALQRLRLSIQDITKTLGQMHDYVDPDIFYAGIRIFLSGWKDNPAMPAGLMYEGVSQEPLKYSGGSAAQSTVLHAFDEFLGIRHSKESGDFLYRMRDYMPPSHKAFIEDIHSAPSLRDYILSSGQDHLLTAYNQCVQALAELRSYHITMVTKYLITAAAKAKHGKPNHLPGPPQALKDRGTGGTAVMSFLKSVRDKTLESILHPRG
Kind of experiment: Inhibition of IDO2 (unknown origin) assessed as reduction in kynurenine formation using L-tryptophan as substrate by methylene blue reagent based assay.

Experiment [2] addresses T2, Indoleamine 2,3-dioxygenase 1 (Homo sapiens, UniProt P14902). Description: Inhibition of IDO1 (unknown origin) assessed as reduction in kynurenine formation using L-tryptophan as substrate by methylene blue reagent based assay.
Target sequence in this assay (P14902 whole entry): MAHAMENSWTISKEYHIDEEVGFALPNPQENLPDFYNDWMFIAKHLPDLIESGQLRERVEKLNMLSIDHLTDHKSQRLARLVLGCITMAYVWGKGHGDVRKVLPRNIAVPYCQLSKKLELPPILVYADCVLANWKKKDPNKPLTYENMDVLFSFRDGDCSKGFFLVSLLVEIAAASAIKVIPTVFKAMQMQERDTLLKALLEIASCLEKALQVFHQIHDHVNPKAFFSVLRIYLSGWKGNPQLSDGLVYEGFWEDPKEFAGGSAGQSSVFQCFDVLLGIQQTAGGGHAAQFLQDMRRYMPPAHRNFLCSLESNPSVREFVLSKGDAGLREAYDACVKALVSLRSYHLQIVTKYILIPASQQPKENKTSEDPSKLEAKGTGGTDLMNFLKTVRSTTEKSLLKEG
Experiment [3] deals with T3, Indoleamine 2,3-dioxygenase 2 (Homo sapiens) (UniProt Q6ZQW0).
T3 sequence (whole entry): T1 sequence (Q6ZQW0 whole entry)
Description: Inhibition of IDO2 (unknown origin) assessed as reduction in kynurenine formation using L-tryptophan as substrate by methylene blue reagent based assay relative to control. Set-up: concentration or dose not given beside the values. As to conditions: concentration not given here.

For experiment [4], the target named is T2, Indoleamine 2,3-dioxygenase 1. Description: Inhibition of IDO1 (unknown origin) assessed as reduction in kynurenine formation using L-tryptophan as substrate by methylene blue reagent based assay relative to control. Set-up: concentration or dose not given beside the values. Conditions: concentration not given here.
Target sequence in this assay (P14902 whole entry, looked up): as the sequence (P14902 whole entry) above
Experiment [5] shares this target. Kind of experiment: Inhibition of IDO1 in IFNgamma-stimulated human HeLa cells assessed as reduction in kynurenine formation measured after 48 hrs by spectrophotometry.
Target sequence in this assay (P14902 whole entry): as above

As to `CC(C)(O)c1cn(CCNc2nonc2/C(=N/O)Nc2ccc(F)c(Br)c2)nn1`, the IC50 in experiment [1] stood at 726 nM; in experiment [2], 115 nM.

`CCCCc1cn(CCNc2nonc2/C(=N/O)Nc2ccc(F)c(Br)c2)nn1`: the figures for the IC50 in experiment [1] and in experiment [2] were 830 nM and 127 nM, respectively.

Regarding `O/N=C(\Nc1ccc(F)c(Br)c1)c1nonc1NCCn1cc(C2(O)CCCCC2)nn1`, the figures for the IC50 in experiment [1] and in experiment [2] were 865 nM and 62 nM, respectively.

In the case of `CC(OCCO)c1cn(CCNc2nonc2/C(=N/O)Nc2ccc(F)c(Br)c2)nn1` (stereo not drawn), the IC50 in experiment [1] came to 930 nM; in experiment [2], 134 nM.

With `OCCc1cn(CCNc2nonc2/C(=N/O)Nc2ccc(F)c(Br)c2)nn1`, the IC50 in experiment [1] came to 1170 nM; in experiment [2], 247 nM.

With `Cc1ccc(-c2cn(CCNc3nonc3/C(=N/O)Nc3ccc(F)c(Br)c3)nn2)cc1`, the inhibition in experiment [3] worked out at 14%; in experiment [4] it was 12%.

As for `OCc1cn(CCNc2nonc2/C(=N/O)Nc2ccc(F)c(Br)c2)nn1`, the figures for the IC50 in experiment [1] and in experiment [2] were 794 nM and 77 nM, respectively.

Regarding `OCCCCc1cn(CCNc2nonc2/C(=N/O)Nc2ccc(F)c(Br)c2)nn1`, the IC50 in experiment [1] turned out to be 1080 nM; in experiment [2] it was 80 nM.

Take `COCc1cn(CCNc2nonc2/C(=N/O)Nc2ccc(F)c(Br)c2)nn1`: the inhibition was found to be 7% in experiment [3] and 20.5% in experiment [4].

In the case of `O/N=C(\Nc1ccc(F)c(Br)c1)c1nonc1NCCn1cc(-c2cccc(O)c2)nn1`, the IC50 in experiment [5] is 13.6 nM. The inhibition came to 13% in experiment [3] and 38% in experiment [4].

For `CC(C)CC(C)(O)c1cn(CCNc2nonc2/C(=N/O)Nc2ccc(F)c(Br)c2)nn1` (stereo not drawn), the IC50 came to 689 nM in experiment [1] and 51 nM in experiment [2].
